# Test results as given in patent US8865138B2, “Melanin modification compositions and methods of use” (Allergan, Inc., priority 2011, dated 2014).
# Tested on: PGF2 alpha
# Experiment: Inhibition of prostaglandin F2 alpha levels in UVB-exposed keratinocytes (ELISA)
# Type: cell-based
# Conditions: UVB-induced human keratinocytes; PGF2 alpha measured by ELISA 24 hours post-treatment; FIG. 1
# Method: Human keratinocytes were harvested and exposed to with UVB light to induce PGF2 alpha release. Following exposure to UVB irradiation, the cells were treated with a composition comprising 1% 4-ethoxybenzaldehyde, Indomethacin (positive control) or left untreated (negative control). After 24 hours post-treatment, PGF2 alpha levels were measured by ELISA analysis.
structure (smiles),measurement,value
CCOc1ccc(C=O)cc1 [4-ethoxybenzaldehyde],inhibition of PGF2 alpha,dose-dependent inhibition
